# In US5656289A, “Pharmaceutical formulations that have a biologically active hydrophilic phase and a chylomicra-containing hydrophobic phase” (priority 1988, dated 1997):
# Several values for one entry are separate records, joined by “and”; a condition that tells them apart may be missing. Identical values can stand only once.
# Legend:
# [1] = in vivo; cited from earlier work
# diabetics [2] = experiment: Biological Example B: blood sugar in diabetics and one healthy volunteer after oral Example 1 liquid microemulsion, Regular Insulin or Diabenase; settings: for response of case numbers 1 and 8 (in words): 500 mg tablets per os / 20 units s.c.
# Method: An appropriate amount of the microemulsion is given in a liquid form per os together with 10 ml of MCT (MCT is a trade mark for a medium chained triglyceride solution by Mead-Johnson & Co. Evansville, Ind., U.S.A.). […] Each ml of the insulin-containing formulation contains approximately 5 units of bovine insulin.
# Twelve diabetics (9 IDDM and 3 NIDDM) and one healthy volunteer participate in the study. […] Each subject is given one unit of insulin per kg body weight in the form described above per os.
# [3] = Biological Example B: serum insulin after oral Example 1 emulsion or s.c. Regular Insulin; type: in vivo, human
# Description: The results are as follows:
# diabetics [4] = experiment: Biological Example A: blood sugar in diabetics and one healthy volunteer after oral Example 5 capsules or s.c. Regular Insulin; type: in vivo, human
# [5] = Biological Example A: serum insulin after oral Example 5 capsules or s.c. Regular Insulin (radioimmunoassay); type: in vivo, human
# Method: A total of 17 diabetics (8 Insulin-Dependent and 9 Non-Insulin-Dependent diabetics) and one healthy volunteer are fasted overnight. […] Each capsule contains approximately 10 U of bovine insulin and each subject is given, orally, a dose equivalent to approximately one unit per kg body weight, with about 250 ml of water. Blood sugar levels are measured on blood samples obtained by pricking the finger-tip using a HAEMOGLUKOTEST set 20-800R and a REFLOLUX apparatus (Boehringer Mannheim GmbH, West Germany). In a few cases, serum insulin levels are measured using a radioimmunoassay method. For the serum insulin analyses, the serum samples are decanted into TRASYLOL-containing test tubes and stored at -20° to -35° C. until analysed. (TRASYLOL is a trade mark of Bayer for aprotinin proteinase inhibitor.)
# [6] = 15 Units s.c., case 12 IDDM, 0 h (baseline)
# [7] = 15 Units s.c., case 12 IDDM, 1 h
# [8] = 15 Units s.c., case 12 IDDM, 3 h
# [9] = 15 Units s.c., case 12 IDDM, 4 h
# [10] = 20 Units s.c., case 11 IDDM, 0.5 h
# [11] = 20 Units s.c., case 11 IDDM, 3 h
# [12] = 20 Units s.c., case 11 IDDM, 4 h
# [13] = 15 Units s.c., case 18 IDDM, 0 h (baseline)
# [14] = 15 Units s.c., case 18 IDDM, 1.0 h
# [15] = 15 Units s.c., case 18 IDDM, 2.0 h
compound,measurement,setting,value
Sorbitan monolaurate,LD50,[1],41000 mg/kg
Sorbitan trioleate,LD50,[1],> 40000 mg/kg
Sorbitan monooleate,LD50,[1],> 40000 mg/kg
Sorbitan monostearate,LD50,[1],31000 mg/kg
CCCNC(=O)NS(=O)(=O)c1ccc(Cl)cc1 [Diabenase],Blood Sugar,"diabetics [2]; 500 mg per os, case 1 NIDDM, 0 h (baseline)",186 mg/dL
same,Blood Sugar,"diabetics [2]; 500 mg per os, case 8 NIDDM, 1 h",222 mg/dL
same,Blood Sugar,"diabetics [2]; 500 mg per os, case 8 NIDDM, 2 h",205 mg/dL
same,Blood Sugar,"diabetics [2]; 500 mg per os, cases 1 and 8 NIDDM, 3 h",164 mg/dL and 174 mg/dL
same,response of case numbers 1 and 8 (in words),diabetics [2],poor responders
"Regular Insulin: Regular Insulin (Green Cross Co. of Seoul, Korea), subcutaneously injected",Serum Insulin,[3]; [6],30 micro-Units/ml
same,Serum Insulin,[3]; [7],47 micro-Units/ml
same,Serum Insulin,[3]; [8],112 micro-Units/ml
same,Serum Insulin,[3]; [9],115 micro-Units/ml
same,Serum Insulin,[3]; [10],159 micro-Units/ml
same,Serum Insulin,[3]; [11],78 micro-Units/ml
same,Serum Insulin,[3]; [12],45 micro-Units/ml
same,response of case numbers 1 and 8 (in words),diabetics [2],poor responders
same,Blood Sugar (Table 6),diabetics [2]; [6],188 mg/dL
same,Blood Sugar (Table 6),diabetics [2]; [7],181 mg/dL
same,Blood Sugar (Table 6),diabetics [2]; [8],160 mg/dL
same,Blood Sugar (Table 6),diabetics [2]; [9],139 mg/dL
same,Blood Sugar,"diabetics [2]; 15 Units, case 1 NIDDM, 0 h (baseline)",201 mg/dL
same,Blood Sugar,"diabetics [2]; 15 Units, case 1 NIDDM, 1 h",198 mg/dL
same,Blood Sugar,"diabetics [2]; 15 Units, case 1 NIDDM, 4 h",185 mg/dL
same,Blood Sugar (Table 6),"diabetics [2]; 20 Units s.c., case 11 IDDM, 0 h (baseline)",308 mg/dL
same,Blood Sugar (Table 6),diabetics [2]; [10],181 mg/dL
same,Blood Sugar (Table 6),diabetics [2]; [11],87 mg/dL
same,Blood Sugar (Table 6),diabetics [2]; [12],115 mg/dL
same,Blood Sugar,"diabetics [2]; 20 Units, case 8 NIDDM, 3 h",194 mg/dL
same,Blood Sugar,"diabetics [2]; 20 Units, case 8 NIDDM, 4 h",176 mg/dL
same,Blood Sugar,"diabetics [2]; 20 Units, cases 6 and 8, 0 h (baseline)",151 mg/dL and 218 mg/dL
same,Blood Sugar,"diabetics [2]; 20 Units, cases 6 and 8, 2 h",124 mg/dL and 200 mg/dL
same,response to subcutaneously injected insulin (in words),"diabetics [4]; 5 to 20 units s.c., case nos. 2, 5, 6, 10, 14",respond poorly
same,Blood Sugar,"diabetics [4]; 5 units s.c., case 6 NIDDM, 0 h (baseline)",259 mg/dL
same,Blood Sugar,"diabetics [4]; 5 units s.c., case 6 NIDDM, 2 h",376 mg/dL
same,Blood Sugar,"diabetics [4]; 5 units s.c., case 6 NIDDM, 3 h",298 mg/dL
same,Blood Sugar (Table 3),diabetics [4]; [13],171 mg/dL
same,Blood Sugar (Table 3),diabetics [4]; [14],152 mg/dL
same,Blood Sugar (Table 3),diabetics [4]; [15],122 mg/dL
same,Blood Sugar (Table 3),"diabetics [4]; 15 Units s.c., case 18 IDDM, 3.0 h",207 mg/dL
same,Blood Sugar (Table 3),"diabetics [4]; 15 Units s.c., case 18 IDDM, […]",131 mg/dL
same,Blood Sugar,"diabetics [4]; 15 units s.c., case 5 IDDM, 0 h (baseline)",171 mg/dL
same,Blood Sugar,"diabetics [4]; 15 units s.c., case 5 IDDM, 1 h",196 mg/dL
same,Blood Sugar,"diabetics [4]; 15 units s.c., case 5 IDDM, 2 h",161 mg/dL
same,Blood Sugar,"diabetics [4]; 15 units s.c., case 5 IDDM, 3 h",170 mg/dL
same,Blood Sugar (Table 3),"diabetics [4]; 20 Units s.c., case 10 NIDDM, 0 h (baseline)",157 mg/dL
same,Blood Sugar (Table 3),"diabetics [4]; 20 Units s.c., case 10 NIDDM, 0.5 h",102 mg/dL
same,Blood Sugar (Table 3),"diabetics [4]; 20 Units s.c., case 10 NIDDM, 3.0 h",106 mg/dL
same,Blood Sugar (Table 3),"diabetics [4]; 20 Units s.c., case 10 NIDDM, […]",77 mg/dL
same,Blood Sugar,"diabetics [4]; 20 units s.c., poor responders, 0 h (baseline)",216 mg/dL and 330 mg/dL and 312 mg/dL
same,Blood Sugar,"diabetics [4]; 20 units s.c., poor responders, 1 h",196 mg/dL and 162 mg/dL
same,Blood Sugar,"diabetics [4]; 20 units s.c., poor responders, 2 h",186 mg/dL and 180 mg/dL
same,Blood Sugar,"diabetics [4]; 20 units s.c., poor responders, 3 h",180 mg/dL
same,Serum Insulin,[5]; [13],10 micro-U/ml
same,Serum Insulin,[5]; [14],57 micro-U/ml
same,Serum Insulin,[5]; [15],184 micro-U/ml
same,Serum Insulin,"[5]; 15 Units s.c., case 18 IDDM, 4.0 h",64 micro-U/ml
same,Serum Insulin,"[5]; 20 Units s.c., case 10 NIDDM, 1.0 h",19 micro-U/ml
same,Serum Insulin,"[5]; 20 Units s.c., case 10 NIDDM, 2.0 h",11 micro-U/ml
Sorbitan tristearate,LD50,[1],> 16000 mg/kg
Sorbitan monopalmitate,LD50,[1],> 16000 mg/kg
